Data reported in PubChem BioAssay (NCI).
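Compound exposure: 48 hours, 5 concentrations, 96-well plates. TGI is the concentration that stops growth completely.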

Assays:
Assay in all cases: NCI anticancer screen, dose series, 48 h
786-0 renal = system: 786-0 renal
HCC-2998 colon = system: HCC-2998 colon
LOX IMVI melanoma = system: LOX IMVI melanoma
MDA-N = system: MDA-N
NCI/ADR-RES ovarian = system: NCI/ADR-RES ovarian
SK-MEL-5 melanoma = system: SK-MEL-5 melanoma
SN12C renal = system: SN12C renal
SW-620 colon = system: SW-620 colon
UACC-62 melanoma = system: UACC-62 melanoma
CCRF-CEM leukemia = system: CCRF-CEM leukemia
SNB-75 CNS = system: SNB-75 CNS

SMILES | TGI (786-0 renal) [µM] | TGI (HCC-2998 colon) [µM] | TGI (LOX IMVI melanoma) [µM] | TGI (MDA-N) [µM] | TGI (NCI/ADR-RES ovarian) [µM] | TGI (SK-MEL-5 melanoma) [µM] | TGI (SN12C renal) [µM] | TGI (SW-620 colon) [µM] | TGI (UACC-62 melanoma) [µM] | TGI (CCRF-CEM leukemia) [µM] | TGI (SNB-75 CNS) [µM]
COc1ccccc1Cc1ccc(C2C=CC3(CC(=O)C=C3C)C(=O)C2)o1 (stereo not drawn) | 41.9 | > 100 | 34.9 | 44.2 | > 100 | 29 | 58.5 | 40.7 | 31.8 |  | 
Nc1ccc2[nH]c(-c3cccc(C(F)(F)F)c3)cc(=O)c2c1 | > 100 | > 100 | > 100 |  | > 100 | > 100 | > 100 | > 100 | > 100 | 59.9 | 96.9
Cc1[nH]c(=O)[nH]c(=O)c1/C=C/C(=O)O (tested in a mixture with another compound) |  | > 625 | > 625 |  | > 625 | > 625 | > 625 | > 625 | > 625 | > 625 | > 625
C=CCN1/C(=C(\C#N)c2nc3ccccc3[nH]2)Sc2c1nc[nH]c2=O |  | > 100 |  |  |  | > 100 | > 100 | > 100 | > 100 | > 100 | > 100
N#Cc1ccc(Cc2ccccn2)cc1Cl | > 100 |  | > 100 |  |  | > 100 | > 100 | > 100 | > 100 | > 100 | 
CC(=O)Oc1cc(S(=O)(=O)Nc2n[nH]c(Nc3ccc(C)cc3)n2)c(S)cc1Cl | > 100 |  | > 100 | > 100 | > 100 | > 100 | > 100 | > 100 | > 100 | > 100 | 
CC(CCC[C@H](C)CO)[C@H]1[C@@H](O)C(O)C2[C@@H]3C[C@@H](O)C4(O)C[C@@H](O)CC[C@]4(C)C3CC[C@@]21C (stereo partly drawn) | > 100 | > 100 | > 100 |  |  | > 100 | > 100 | > 100 | > 100 | > 100 | > 100
CNC(=O)NCNC(=O)NC | > 100 | > 100 | > 100 |  |  | > 100 |  | > 100 | > 100 | > 100 | > 100
CC(=O)OC(CC1(C)C(C)CCC23COC(=O)C2=CCCC31)c1ccoc1 (stereo not drawn) | 32.2 | 57.1 | 47.9 |  |  | 42.1 | 71.8 | 66.8 | 59.9 | 80.3 | 78.5
COC(=O)C1CCC(=O)N1C(c1cc(OC)c(OC)c(OC)c1)c1cc(OC)c(OC)c(OC)c1 (stereo not drawn) | > 100 |  | > 100 | > 100 |  |  | > 100 | > 100 | > 100 |  | > 100
CCOC(=O)CC1COc2ccc3c(c21)OCO3 (stereo not drawn) | > 100 | > 100 | > 100 |  |  | > 100 | > 100 | > 100 | > 100 | > 100 | > 100
CCOC(=O)C(=O)C=P(c1ccccc1)(c1ccccc1)c1ccccc1 | > 100 | > 100 | > 100 |  |  | > 100 | > 100 | > 100 | > 100 | > 100 | > 100
CC(CC(N)C(=O)O)C(=O)O (stereo not drawn) | > 100 |  | > 100 | > 100 | > 100 | > 100 | > 100 | > 100 | > 100 | > 100 | 
NNC(=O)CC(=O)Nc1cccc(Cl)c1 | > 100 | > 100 | > 100 | > 100 |  | > 100 | > 100 | > 100 | > 100 | > 100 | > 100
Clc1cccc(-c2sc(-c3ccsc3)cc2Cc2ccsc2)c1 | > 10 | > 10 | > 10 | > 10 |  | > 10 | > 10 | > 10 | > 10 | > 10 | > 10
COc1cc2c(c(OC)c1OC)-c1ccc(SC)c(=O)cc1C(CC(=O)Oc1cccc([N+](=O)[O-])c1)C2 (stereo not drawn) | > 100 | 0.849 | > 32.1 |  |  | > 100 | > 76.9 | > 100 |  | > 57.2 | 0.71
COc1cc2c3cc1Oc1c(O)c(OC)cc4c1C(Cc1ccc(O)c(c1)Oc1ccc(cc1)CC3N(C)CC2)N(C)CC4 (stereo not drawn) | 25.9 | 13.6 | 10.7 |  |  | 32.9 | 28.6 | 16.7 | 42.9 | 36.7 | 35.3
